The target of the test is PD-1/PD-L1 (Homo sapiens (Human), UniProt Q9NZQ7). The test is described as follows: PD-1/PD-L1 Homogeneous Time-Resolved Fluorescence (HTRF) Binding Assay. To be noted: recombinant human PD-1 (3 nM) and PD-L1 (10 nM), 25° C., PBS pH 7.4. In short, it runs like this: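 Fc-tagged human PD-1 (25-167, 3 nM) and His-tagged PD-L1 (19-238, 10 nM) preincubated with inhibitor 40 min in PBS pH 7.4, 0.05% Tween-20, 0.1% BSA, 1% DMSO, 25 °C. Binding detected by HTRF (Eu anti-IgG/APC anti-His, 665/620 nm) after 60 min; IC50 from percent control activity.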
Sequence of PD-1/PD-L1 (Q9NZQ7 19-238): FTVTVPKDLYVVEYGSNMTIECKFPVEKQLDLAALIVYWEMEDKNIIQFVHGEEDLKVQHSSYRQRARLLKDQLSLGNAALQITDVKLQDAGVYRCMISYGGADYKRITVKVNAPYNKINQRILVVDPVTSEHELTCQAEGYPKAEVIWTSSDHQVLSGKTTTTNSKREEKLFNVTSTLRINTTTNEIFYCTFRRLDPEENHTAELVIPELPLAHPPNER

Molecules are shown by their SMILES. Bounds are passed on as bounds.

As for `Cc1c(NC(=O)c2nc3c(n2C)CCN(C)C3)cccc1-c1cccc(-c2nc3cc(CN4CCC(C(=O)O)CC4)cc(C#N)c3o2)c1C` [Example 259, 1-((7-cyano-2-(3′-(1,5-dimethyl-4,5,6,7-tetrahydro-1H-imidazo[4,5-c]pyridine-2-carboxamido)-2,2′-dimethylbiphenyl-3-yl)benzo[d]oxazol-5-yl)methyl)piperidine-4-carboxylic acid], the IC50 (in general, the midpoint of a concentration-inhibition curve) is at most 10 nM.

As for `CCN1CCN(CC(=O)N2Cc3nc(-c4cccc(-c5cccc(-c6nc7cc(CN8CC[C@@](C)(C(=O)O)C8)cc(C#N)c7o6)c5C)c4C)sc3C2)CC1` [Example 223, (R)-1-((7-cyano-2-(3′-(5-(2-(4-ethylpiperazin-1-yl)acetyl)-5,6-dihydro-4H-pyrrolo[3,4-d]thiazol-2-yl)-2,2′-dimethylbiphenyl-3-yl)benzo[d]oxazol-5-yl)methyl)-3-methylpyrrolidine-3-carboxylic acid], the IC50 is at most 10 nM.

Consider `Cc1c(Nc2nccc3cc(CN4CC[C@@H](O)C4)cnc23)cccc1-c1cccc(-c2nc3cc(CN4CCC(C(=O)O)CC4)cc(C#N)c3o2)c1C` [Example 186, (R)-1-((7-cyano-2-(3′-(3-((3-hydroxypyrrolidin-1-yl)methyl)-1,7-naphthyridin-8-ylamino)-2.2′-dimethylbiphenyl-3-yl)benzo [d]oxazol-5-yl)methyl)piperidine-4-carboxylic acid], for which the IC50 is at most 10 nM.

Regarding `Cc1c(-c2nc3cc(CN4CC[C@@H](C(=O)O)C4)cc(C#N)c3o2)cccc1-c1cccc(-c2nc3c(s2)CNCC3)c1C` [Example 72, (R)-1-((7-cyano-2-(2,2′-dimethyl-3′-(4,5,6,7-tetrahydrothiazolo[5,4-c]pyridin-2-yl)biphenyl-3-yl)benzo[d]oxazol-5-yl)methyl)pyrrolidine-3-carboxylic acid], the IC50 is at most 10 nM.

As for `Cc1c(Nc2nccc3cc(CN4CC[C@@H](O)C4)cnc23)cccc1-c1cccc(-c2nc3cc(CN4CC[C@@H](C(=O)O)C4)cc(C#N)c3o2)c1Cl` [Example 168, (R)-1-((2-(2-chloro-3′-(3-(((R)-3-hydroxypyrrolidin-1-yl)methyl)-1,7-naphthyridin-8-ylamino)-2′-methylbiphenyl-3-yl)-7-cyanobenzo[d]oxazol-5-yl)methyl)pyrrolidine-3-carboxylic acid], the IC50 is at most 10 nM.

In the case of `Cc1c(-c2nc3cc(CN4CC[C@@](C)(C(=O)O)C4)cc(C#N)c3o2)cccc1-c1cccc(-c2nc3c(s2)CN(C(=O)CN[C@H]2C[C@@H](O)C2)C3)c1C` [Example 228, (R)-1-((7-cyano-2-(3′-(5-(2-(cis-3-hydroxycyclobutylamino)acetyl)-5,6-dihydro-4H-pyrrolo[3,4-d]thiazol-2-yl)-2,2′-dimethylbiphenyl-3-yl)benzo[d]oxazol-5-yl)methyl)-3-methylpyrrolidine-3-carboxylic acid], the IC50 was at most 10 nM.

As for `Cc1c(-c2nc3cc(CN4CC[C@@H](C(=O)O)C4)cc(C#N)c3o2)cccc1-c1cccc(-c2nc3c(s2)CN(CC2CC2)CC3)c1C` [Example 64, (R)-1-((7-cyano-2-(3′-(5-(cyclopropylmethyl)-4,5,6,7-tetrahydrothiazolo[5,4-c]pyridin-2-yl)-2,2′-dimethyl-[1,1′-biphenyl]-3-yl)benzo[d]oxazol-5-yl)methyl)pyrrolidine-3-carboxylic acid], the IC50 is at most 10 nM.

`Cc1c(-c2nc3cc(CN4CC[C@@H](O)C4)cc(C#N)c3o2)cccc1-c1cccc(NC(=O)c2nc3c(n2C)CCN(C[C@H]2CC[C@H](C(=O)O)CC2)C3)c1Cl` [Example 261, trans-4-((2-(2-chloro-3′-(7-cyano-5-(((R)-3-hydroxypyrrolidin-1-yl)methyl)benzo[d]oxazol-2-yl)-2′-methylbiphenyl-3-ylcarbamoyl)-1-methyl-6,7-dihydro-1H-imidazo[4,5-c]pyridin-5 (4H)-yl)methyl)cyclohexanecarboxylic acid]: the IC50 was at most 10 nM.

Consider `Cc1c(-c2nc3cc(CN4CC[C@H](C(=O)O)C4)cc(C#N)c3o2)cccc1-c1cccc(NC(=O)c2nc3c(n2C)CCN(C)C3)c1Cl` [Example 50, (S)-1-((2-(2′-chloro-3′-(1,5-dimethyl-4,5,6,7-tetrahydro-1H-imidazo[4,5-c]pyridine-2-carboxamido)-2-methylbiphenyl-3-yl)-7-cyanobenzo[d]oxazol-5-yl)methyl)pyrrolidine-3-carboxylic acid], for which the IC50 is at most 10 nM.

Regarding `Cc1c(-c2nc3cc(CN4CC[C@H](C(=O)O)C4)cc(C#N)c3o2)cccc1-c1cccc(Nc2nccc3cc(CN4CC[C@@H](O)C4)cnc23)c1Cl` [Example 83, (S)-1-((2-(2′-chloro-3′-(3-(((R)-3-hydroxypyrrolidin-1-yl)methyl)-1,7-naphthyridin-8-ylamino)-2-methylbiphenyl-3-yl)-7-cyanobenzo[d]oxazol-5-yl)methyl)pyrrolidine-3-carboxylic acid], the half-inhibitory concentration (IC50) was at most 10 nM.

On to `CCN(C1CCN(c2cccc(-c3cccc(-c4nc5cc(CN6CC[C@@H](C(=O)O)C6)cc(C#N)c5o4)c3C)c2Cl)CC1)[C@H]1C[C@@H](O)C1` [Example 49, (R)-1-((2-(2′-chloro-3′-(4-(ethyl((1s,3s)-3-hydroxycyclobutyl)amino)piperidin-1-yl)-2-methylbiphenyl-3-yl)-7-cyanobenzo[d]oxazol-5-yl)methyl)pyrrolidine-3-carboxylic acid], for which the IC50 is at most 10 nM.

Consider `Cc1c(Nc2nccc3cc(CN4CC[C@@](C)(O)C4)cnc23)cccc1-c1cccc(-c2nc3cc(CN4CC[C@@H](C(=O)O)C4)cc(C#N)c3o2)c1C` [Example 137, (R)-1-((7-cyano-2-(3′-(3-(((R)-3-hydroxy-3-methylpyrrolidin-1-yl)methyl)-1,7-naphthyridin-8-ylamino)-2,2′-dimethylbiphenyl-3-yl)benzo[d]oxazol-5-yl)methyl)pyrrolidine-3-carboxylic acid], for which the IC50 is at most 10 nM.

With `Cc1c(-c2nc3c(o2)CN(C(=O)CN2CCC2)C3)cccc1-c1cccc(-c2nc3cc(CN4CC[C@@H](C(=O)O)C4)cc(C#N)c3o2)c1C` [Example 130, (R)-1-((2-(3′-(5-(2-(azetidin-1-yl)acetyl)-5,6-dihydro-4H-pyrrolo[3,4-d]oxazol-2-yl)-2,2′-dimethyl-[1,1′-biphenyl]-3-yl)-7-cyanobenzo[d]oxazol-5-yl)methyl)pyrrolidine-3-carboxylic acid], the IC50 was at most 10 nM.

For `Cc1c(-c2nc3cc(CN4CC[C@@H](C(=O)NCCO)C4)cc(C#N)c3o2)cccc1-c1cccc(-n2cc3c(n2)CN(C(C)C)CC3)c1Cl` [Example 104, (R)-1-((2-(2′-chloro-3′-(6-isopropyl-4,5,6,7-tetrahydro-2H-pyrazolo[3,4-c]pyridin-2-yl)-2-methylbiphenyl-3-yl)-7-cyanobenzo[d]oxazol-5-yl)methyl)-N-(2-hydroxyethyl)pyrrolidine-3-carboxamide], the IC50 is at most 10 nM.

`Cc1c(Nc2nccc(CN3CC[C@@H](O)C3)c2F)cccc1-c1cccc(-c2nc3cc(CN4CC[C@@H](C(=O)O)C4)cc(C#N)c3o2)c1C` [Example 102, (R)-1-((7-cyano-2-(3′-(3-fluoro-4-(((R)-3-hydroxypyrrolidin-1-yl)methyl)pyridin-2-ylamino)-2,2′-dimethylbiphenyl-3-yl)benzo[d]oxazol-5-yl)methyl)pyrrolidine-3-carboxylic acid]: the IC50 is at most 10 nM.

Consider `CNCc1cnc2c(Nc3cccc(-c4cccc(-c5nc6cc(CN7CC[C@@](C)(C(=O)O)C7)cc(C#N)c6o5)c4C)c3C)nccc2c1` [Example 197, (R)-1-((7-cyano-2-(2,2′-dimethyl-3′-(3-((methylamino)methyl)-1,7-naphthyridin-8-ylamino)biphenyl-3-yl)benzo[d]oxazol-5-yl)methyl)-3-methylpyrrolidine-3-carboxylic acid], for which the IC50 is at most 10 nM.

On to `Cc1c(-c2nc3cc(CN4CC[C@@H](C(=O)O)C4)cc(Cl)c3o2)cccc1-c1cccc(N2CCC(N[C@H]3C[C@@H](O)C3)CC2)c1Cl` [Example 45, (R)-1-((7-chloro-2-(2′-chloro-3′-(4-((1s,3s)-3-hydroxycyclobutylamino)piperidin-1-yl)-2-methylbiphenyl-3-yl)benzo[d]oxazol-5-yl)methyl)pyrrolidine-3-carboxylic acid], for which the IC50 was at most 10 nM.

As for `Cc1c(Nc2nccc3cc(CN4CC[C@H](O)C4)cnc23)cccc1-c1cccc(-c2nc3cc(CN4CCCC[C@H]4C(=O)O)cc(C#N)c3o2)c1C` [Example 27, (S)-1-((7-cyano-2-(3′-(3-(((S)-3-hydroxypyrrolidin-1-yl)methyl)-1,7-naphthyridin-8-ylamino)-2,2′-dimethylbiphenyl-3-yl)benzo[d]oxazol-5-yl)methyl)piperidine-2-carboxylic acid], the IC50 was at most 10 nM.

`Cc1c(-c2nc3cc(CNCCO)cc(C#N)c3o2)cccc1-c1cccc(-c2nc3c(s2)CN(C(C)C)CC3)c1C` [Example 120, 5-(((2-hydroxyethyl)amino)methyl)-2-(3′-(5-isopropyl-4,5,6,7-tetrahydrothiazolo[5,4-c]pyridin-2-yl)-2,2′-dimethyl-[1,1′-biphenyl]-3-yl)benzo[d]oxazole-7-carbonitrile]: the IC50 is at most 10 nM.

Turning to `CCN1CCc2nc(-c3cccc(-c4cccc(-c5nc6cc(CN7CC[C@@H](C(=O)O)C7)cc(Cl)c6o5)c4C)c3C)sc2C1` [Example 60, (R)-1-((7-chloro-2-(3′-(5-ethyl-4,5,6,7-tetrahydrothiazolo[5,4-c]pyridin-2-yl)-2,2′-dimethyl-[1,1′-biphenyl]-3-yl)benzo[d]oxazol-5-yl)methyl)pyrrolidine-3-carboxylic acid], the IC50 is at most 10 nM.

Consider `CCN1CCc2c(nc(C(=O)Nc3cccc(-c4cccc(-c5nc6cc(CN7CC[C@H](C(=O)O)C7)cc(C#N)c6o5)c4C)c3C)n2C)C1` [Example 37, (S)-1-((7-cyano-2-(3′-(5-ethyl-1-methyl-4,5,6,7-tetrahydro-1H-imidazo[4,5-c]pyridine-2-carboxamido)-2,2′-dimethylbiphenyl-3-yl)benzo[d]oxazol-5-yl)methyl)pyrrolidine-3-carboxylic acid], for which the IC50 was at most 10 nM.

(Values after patent publication US10308644B2, “Heterocyclic compounds as immunomodulators” (Incyte Corporation, priority 2016, dated 2019).)
